In patent EP1268431B1 (Wyeth, priority 2000, dated 2001):
pIC50: −log10 of the molar value. Where “and” joins values, the source holds several entries; their conditions need not be identical. Identical values can stand only once. Like-named read-outs stand apart in the source and are kept apart here.

Columns and labels:
[1] = tested on: Rat2 fibroblasts stably transformed with a plasmid containing a CMV promotor controlled v-Src/Hu c-Src fusion gene; assay: Anchorage Independent Src-transformed Fibroblast Proliferation Assay
c-Src = target: T1, c-Src (Homo sapiens, UniProt P12931); assay: c-Src Kinase Assay (ELISA format); type: biochemical
T1 construct: purchased Upstate Biotechnologies
Description: Inhibitors of Src (partially purified preparation purchased from Upstate Biotechnologies) tyrosine kinase activity are analyzed in an ELISA format. […] Horseradish Peroxidase (HRP)-conjugated anti-phosphotyrosine is used to detect phosphorylated peptide via a color reaction. Conditions recommended by the manufacturer are employed.
Reaction conditions: Five microliter aliquots of each compound prepared fresh at the time of the assay are added as a solution in 10mM HEPES pH 7.5, 10% DMSO to the reaction well. Thirty-five microliters of reaction mix containing Src, buffer and peptide/bovine serum albumin mix are added to the compound wells and incubated at 30°C for 10 minutes (reaction buffer: 50mM TrisHCl pH 7.5, 10mM MgCl2, 0.1mM EGTA, 0.5mM Na3VO4). The reaction is started by addition of 10 microliters of ATP, incubated at 30°C for 1 hour, and stopped by addition of 20 microliters of 0.5M EDTA. The reaction mixture with the phosphorylated peptide is then transferred to a streptavidin-coated microtiter plate (provided in the kit) and allowed to bind for 20 minutes. Unbound peptide and reaction mixture is decanted and the plate is washed with PBS six times. HRP-conjugated phosphotyrosine antibody supplied in the kit is incubated with the plate for one hour, then decanted. The plate is again washed with PBS six times.
Activity is determined as % inhibition as calculated by the formula: (1 - Abs/Abs(max)) x 100 = % inhibition.

[2] = Rattus norvegicus, Rat2, 120 h, read-out: anch-indep src-tx fib IC50, suspension growth, MTS on Day 5
[3] = read-out: anch-indep src-tx fib IC50, suspension growth, MTS on Day 5

| Compound | pIC50 (c-Src) | IC50 (c-Src) | inhibition at 10 µM (c-Src; at 10 µM) [%] | pIC50 [1, 2] | pIC50 [1, 3] | pIC50 ([1]; Rattus norvegicus, Rat2, 120 h, read-out: anch-indep src-tx fib IC50) |
| --- | --- | --- | --- | --- | --- | --- |
| COc1cc(Nc2c(C#N)cnc3cc(-c4ccc(C(=O)O)cc4)ccc23)c(Cl)cc1Cl [Example 121, 4-[3-Cyano-4-(2,4-dichloro-5-methoxyanilino)-7-quinolinyl]benzoic acid] | 8.32 and 8.74 | – | – | < 5.00 | – | – |
| COc1cc(Nc2c(C#N)cnc3cc(-c4ccc(CN5CCC(C(=O)O)CC5)cc4)ccc23)c(Cl)cc1Cl [Example 237, 1-{4-[3-cyano-4-(2,4-dichloro-5-methoxyanilino)-7-quinolinyl]benzyl}-4-piperidinecarboxylic acid] | – | 0.18 nM (2×) and 0.55 nM | – | 6.31 | 6.28 and 6.39 | – |
| COc1cc(Nc2c(C#N)cnc3cc(-c4ccc(C=O)n4C)ccc23)c(Cl)cc1Cl [Example 69, 4-(2,4-Dichloro-5-methoxyanilino)-7-(5-formyl-1-methyl-1H-pyrrol-2-yl)-3-quinolinecarbonitrile] | 6.96 | – | – | < 5.00 | – | – |
| COc1cc(Nc2c(C#N)cnc3cc(-c4ccc(C=O)cc4)ccc23)c(Cl)cc1Cl [Example 83, 4-(2.4-Dichloro-5-methoxyanilino)-7-(4-formylphenyl)-3-quinolinecarbonitrile] | 7.38 | – | – | 5.41 | – | – |
| COc1cc(Nc2c(C#N)cnc3cc(-c4cnc(C=O)n4C)c(OC)cc23)c(Cl)cc1Cl [Example 228, 4-(2,4-dichloro-5-methoxyanilino)-7-(2-formyl-1-methyl-1H-imidazol-5-yl)-6-methoxy-3-quinolinecarbonitrile] | 7.34 | – | – | < 5.00 | – | – |
| COc1cc(Nc2c(C#N)cnc3cc(-c4ccc(CN5CCCC5C(N)=O)cc4)ccc23)c(Cl)cc1Cl (stereo in doubt) [Example 84, (2R)-1-{4-[3-Cyano-4-(2,4-dichloro-5-methoxyanilino)-7-quinolinyl]benzyl}-2-pyrrolidinecarboxamide] | 8.12 | – | – | – | – | 6.11 |
| COc1cc(Nc2c(C#N)cnc3cc(C#Cc4ccc(C)cc4)ccc23)c(Cl)cc1Cl [Example 141, 4-(2,4-dichloro-5-methoxyanilino)-7-[2-(4-methylphenyl)ethynyl]-3-quinolinecarbonitrile] | 6.12 | – | – | < 5.00 | – | – |
| COc1cc(Nc2c(C#N)cnc3cc(-c4cccc5ccccc45)ccc23)c(Cl)cc1Cl [Example 116, 4-(2,4-Dichloro-5-methoxyanilino)-7-(1-naphthyl)-3-quinolinecarbonitrile] | – | – | 25 | < 5.00 | – | – |
| COc1cc(Nc2c(C#N)cnc3cc(-c4cc(CN5CCOCC5)c(CN5CCOCC5)s4)ccc23)c(Cl)cc1Cl [Example 20, 7-[4,5-Bis(4-morpholinylmethyl)-2-thienyl]-4-(2,4-dichloro-5-methoxyanilino)-3-quinolinecarbonitrile] | 8.96 and 9.10 | – | – | 7.40 | 7.52 | – |
| COc1ccc(/C=C/c2ccc3c(Nc4cc(OC)c(Cl)cc4Cl)c(C#N)cnc3c2)cc1 [Example 54, 4-(2,4-Dichloro-5-methoxyanilino)-7-[(E)-2-(4-methoxyphenyl)ethenyl]-3-quinolinecarbonitrile] | 7.21 | – | – | < 5.00 | – | – |
| COc1cc(Nc2c(C#N)cnc3cc(-c4ccc(CNCCS(=O)(=O)c5ccccc5)n4C)ccc23)c(Cl)cc1Cl [Example 72, 4-(2,4-Dichloro-5-methoxyanilino)-7-[1-methyl-5-({[2-(phenylsulfonyl)ethyl]amino}methyl)-1H-pyrrol-2-yl]-3-quinolinecarbonitrile] | 7.11 | – | – | < 5.00 | – | – |
| COc1cc(Nc2c(C#N)cnc3cc(-c4cscc4CN4CCOCC4)ccc23)c(Cl)cc1Cl [Example 65, 4-(2,4-Dichloro-5-methoxyanilino)-7-[4-(4-morpholinylmethyl)-3-thienyl]-3-quinolinecarbonitrile] | 6.70 | – | – | < 5.00 | – | – |
| COc1cc(Nc2c(C#N)cnc3cc(-c4ccc(Oc5ccc(CN6CCOCC6)cc5)nc4)ccc23)c(Cl)cc1Cl [Example 193, 4-(2,4-dichloro-5-methoxyanilino)-7-{6-[4-(4-morpholinylmethyl)phenoxy]-3-pyridinyl)-3-quinolinecarbonitrile] | 7.47 | – | – | < 5.00 | – | – |
| N#Cc1cnc2cc(-c3cc(CN4CCOCC4)c(CN4CCOCC4)s3)ccc2c1Nc1ccc(Cl)cc1Cl [Example 17, 7-[4,5-Bis(4-morpholinylmethyl)-2-thienyl]-4-(2,4-dichloroanilino)-3-quinolinecarbonitrile] | 9.15 and 8.68 and 8.51 | – | – | 6.51 | – | – |
| 4-(2.4-Dichloro-5-methoxyanilino)-7-(3-formyl)-3-guinolinecarbonitrile [Example 112] | 7.44 | – | – | – | 5.14 | – |
| COc1cc(Nc2c(C#N)cnc3cc(-c4ccc(N5CCOCC5)cc4)ccc23)c(Cl)cc1Cl [Example 67, 4-(2,4-Dichloro-5-methoxyanilino)-7-[4-(4-morpholinyl)phenyl]-3-quinolinecarbonitrile] | 8.52 and 8.31 | – | – | 6.96 | – | – |

Continued, in another order:

| pIC50 (c-Src) | IC50 (c-Src) | inhibition at 10 µM (c-Src; at 10 µM) [%] | Compound | pIC50 [1, 2] | pIC50 [1, 3] | pIC50 ([1]; Rattus norvegicus, Rat2, 120 h, read-out: anch-indep src-tx fib IC50) |
| --- | --- | --- | --- | --- | --- | --- |
| 7.66 | – | – | COc1cc(Nc2c(C#N)cnc3cc(-c4ccc(CN(CCO)CCO)o4)ccc23)c(Cl)cc1Cl [Example 76, 7-(5-{[Bis(2-hydroxyethyl)amino]methyl}-2-furyl)-4-(2,4-dichloro-5-methoxyanilino)-3-quinolinecarbonitrile] | 5.96 | – | – |
| 7.51 | – | – | COc1cc(Nc2c(C#N)cnc3cc(/C=C/C(=O)OC(C)(C)C)ccc23)c(Cl)cc1Cl [Example 142, tert-butyl (E)-3-[3-cyano-4-(2,4-dichloro-5-methoxyanilino)-7-quinolinyl]-2-propenoate] | < 5.00 | – | – |
| 7.85 | – | – | COc1cc(Nc2c(C#N)cnc3cc(-c4ccc[nH]4)ccc23)c(Cl)cc1Cl [Example 104, 4-(2,4-Dichloro-5-methoxyanilino)-7-(1H-pyrrol-2-yl)-3-quinolinecarbonitrile] | 6.25 | – | – |
| 8.49 | – | – | 4-[(2,4-Dichloro-5-methoxyphenyl)amino]-7-[4-(4-morpholinyl)phenyl]-3-quinolinecarbonitrile [Example 128] | – | 6.19 | – |
| 8.07 | – | – | CCOC(=O)C1CCCN(Cc2ccc(-c3ccc4c(Nc5cc(OC)c(Cl)cc5Cl)c(C#N)cnc4c3)cc2)C1 (stereo not shown) [Example 148, ethyl 1-(4-{3-cyano-4-[(2,4-dichloro-5-methoxyphenyl)amino]-7-quinolinyl}benzyl)-3-piperidinecarboxylate] | 5.68 | – | – |
| 8.17 | – | – | COC(=O)C1CCN(Cc2ccc(-c3ccc4c(Nc5cc(OC)c(Cl)cc5Cl)c(C#N)cnc4c3)cc2)CC1 [Example 231, methyl 1-{4-[3-cyano-4-(2,4-dichloro-5-methoxy-anilino)-7-quinolinyl]benzyl}-4-piperidinecarboxylate] | 6.41 | – | – |
| 9.32 | – | – | COc1cc(Nc2c(C#N)cnc3cc(-c4cc(CN5CCOCC5)c(CN5CCOCC5)s4)c(OC)cc23)c(Cl)cc1Cl [Example 82, 7-[4,5-Bis(4-morpholinylmethyl)-2-thienyl]-4-(2,4-dichloro-5-methoxyanilino)-6-methoxy-3-quinolinecarbonitrile] | 7.30 | – | – |
| 8.70 | – | – | COc1cc(Nc2c(C#N)cnc3cc(-c4ccc(CN5CCOCC5)s4)ccc23)c(Cl)cc1Cl [Example 23, 4-(2,4-Dichloro-5-methoxyanilino)-7-[5-(4-morpholinylmethyl)-2-thienyl]-3-quinolinecarbonitrile] | 7.05 | – | – |
| 8.09 | – | – | COc1cc(Nc2c(C#N)cnc3cc(-c4ccc(C5OCCO5)s4)ccc23)c(Cl)cc1Cl [Example 51, 4-(2,4-Dichloro-5-methoxyanilino)-7-[5-(1,3-dioxolan-2-yl)-2-thienyl]-3-quinolinecarbonitrile] | 6.38 | – | – |
| 8.82 | – | – | COc1cc(Nc2c(C#N)cnc3cc(-c4csc(CN5CCOCC5)c4)ccc23)c(Cl)cc1C [Example 80, 4-{2-Chloro-5-methoxy-4-methylanilino)-7-[5-(4-morpholinylmethyl)-3-thienyl]-3-quinolinecarbonitrile] | 7.10 | – | – |
| 8.72 | – | – | COc1cc(Nc2c(C#N)cnc3cc(-c4csc(CN5CCOCC5)c4)c(OC)cc23)c(Cl)cc1Cl [Example 36, 4-(2,4-Dichloro-5-methoxyanilino)-6-methoxy-7-[5-(4-morpholinylmethyl)-3-thienyl]-3-quinolinecarbonitrile] | 6.80 | 6.70 | – |
| 9.33 | – | – | COc1cc(Nc2c(C#N)cnc3cc(-c4ccc(CN5CCCCC5C(=O)O)cc4)ccc23)c(Cl)cc1Cl (stereo not shown) [Example 147, 1-{4-[3-cyano-4-(2,4-dichloro-5-methoxyanilino)-7-quinolinyl]benzyl}-2-piperidinecarboxylic acid] | 5.34 | – | – |
| 9.64 | – | – | CCN1CCN(c2ccc(-c3ccc4c(Nc5cc(OC)c(Cl)cc5Cl)c(C#N)cnc4c3)nc2)CC1 [Example 179, 4-[(2,4-dichloro-5-methoxyphenyl)amino]-7-[5-(4-ethyl-1-piperazinyl)-2-pyridinyl]-3-quinolinecarbonitrile] | 6.57 | – | – |
